Data as given in patent US9096599B2, “Spiroindoline compounds” (Intervet Inc., priority 2011, dated 2015).
Where two headings read alike, the source gives them in different places.

Test system: Ascaridia galli (L3) and Oesophagostumum dentatum (L3 and L4) larvae
Assay: In vitro anthelmintic larval test, minimum effective concentration by microscopic examination
Format: cell-based
Conditions: read-out: minimum effective concentration (MEC)
Method: C: Biological Examples Efficacy Against Ascaridia galli and Oesophagostomum dentatum
Anthelmintic effects of compounds of this invention (numbers refer to compound numbers in Table I) were tested in vitro using gut-welling larval stages of two parasitic nematode species: Ascaridia galli (intestinal roundworm of chicken), larval stage 3 (“L3”); and Oesophagostumum dentatum (nodular worm of swine), larval stages 3 and 4 (respectively “L3” and “L4”). When conducting these experiments, DMSO-solutions of various concentrations of compounds of this invention were prepared and incubated in 96-well microtiter plates. The parasites were then distributed at 20 larvae per well. The anthelmintic effects were classified by microscopic examination. The microscopic examination included assessing mortality, damage, motility, progression of development, and neutral red uptake by the larvae in comparison to a DMSO-control.

[1] = activity against one or both of the nematodes (A. galli L3; O. dentatum L3, L4), 96-well plates, 20 larvae per well, vs DMSO-control

Row | SMILES | minimal effective concentration [µM] | minimal effective concentration [1] [µM]
1 | O=C(c1ccnc(Cl)c1)N1CC2(CCN(C/C=C/c3ccccc3)CC2)c2cc(Sc3ccc(F)cc3)ccc21 [Compound 11, (2-chloro-4-pyridyl)-[1′-[(E)-cinnamyl]-5-(4-fluorophenyl)sulfanyl-spiro[indoline-3,4′-piperidine]-1-yl]methanone] | ≤ 50 | –
2 | Cc1cc(C(=O)N2CC3(CCN(C/C=C/c4ccccc4)CC3)c3cc(Sc4ccc(F)cc4)ccc32)cc(Cl)n1 [Compound 12, (2-chloro-6-methyl-4-pyridyl)-[1′-[(E) -cinnamyl]-5-(4-fluorophenyl)sulfanyl-spiro[indoline-3,4′-piperidine]-1-yl]methanone] | ≤ 50 | –
3 | Cc1cc(C(=O)N2CC3(CCN(C/C=C/c4ccccc4)CC3)c3cc(Sc4ccc(F)cc4)ccc32)ccn1 [Compound 13, [1′-[(E)-cinnamyl]-5-(4-fluorophenyl)sulfanyl-spiro[indoline-3,4′-piperidine]-1-yl]-(2-methyl-4-pyridyl)methanone] | ≤ 50 | –
4 | Cc1ccc(/C=C/CN2CCC3(CC2)CN(C(=O)c2ccnc(Cl)c2)c2ccc(Sc4ccc(F)cc4)cc23)cc1C [Compound 14, (2-chloro-4-pyridyl)-[1′-[(E)-3-(3,4-dimethylphenyl)allyl]-5-(4-fluorophenyl)sulfanyl-spiro[indoline-3,4′-piperidine]-1-yl]methanone] | – | ≤ 50
5 | Cc1cc(C(=O)N2CC3(CCN(C/C=C/c4ccc(C)c(C)c4)CC3)c3cc(Sc4ccc(F)cc4)ccc32)cc(Cl)n1 [Compound 15, (2-chloro-6-methyl-4-pyridyl)-[1′-[(E)-3-(3,4-dimethylphenyl)allyl]-5-(4-fluorophenyl)sulfanyl-spiro[indoline-3,4′-piperidine]-1-yl]methanone] | – | ≤ 50
6 | Cc1cc(C(=O)N2CC3(CCN(C/C=C/c4ccc(C)c(C)c4)CC3)c3cc(Sc4ccc(F)cc4)ccc32)ccn1 [Compound 16, [1′-[(E)-3-(3,4-dimethylphenyl)allyl]-5-(4-fluorophenyl)sulfanyl-spiro[indoline-3,4′-piperidine]-1-yl]-(2-methyl-4-pyridyl)methanone] | – | ≤ 50
7 | Cc1ccc(/C=C/CN2CCC3(CC2)CN(C(=O)c2ccnc(Cl)c2)c2ccc(Sc4ccc(F)cc4)cc23)cc1 [Compound 17, (2-chloro-4-pyridyl)-[5-(4-fluorophenyl)sulfanyl-1′-[(E)-3-(p-tolyl)allyl]spiro[indoline-3,4′-piperidine]-1-yl]methanone] | – | ≤ 50
8 | Cc1ccc(/C=C/CN2CCC3(CC2)CN(C(=O)c2cc(C)nc(Cl)c2)c2ccc(Sc4ccc(F)cc4)cc23)cc1 [Compound 18, (2-chloro-6-methyl-4-pyridyl)-[5-(4-fluorophenyl)sulfanyl-1′-[(E)-3-(p-tolyl)allyl]spiro[indoline-3,4′-piperidine]-1-yl]methanone] | – | ≤ 50
9 | Cc1ccc(/C=C/CN2CCC3(CC2)CN(C(=O)c2ccnc(C)c2)c2ccc(Sc4ccc(F)cc4)cc23)cc1 [Compound 19, [5-(4-fluorophenyl)sulfanyl-1′-[(E)-3-(p-tolyl)allyl]spiro[indoline-3,4′-piperidine]-1-yl]-(2-methyl-4-pyridyl)methanone] | – | ≤ 50
10 | Cc1ccc(/C=C/CN2CCC3(CC2)CN(C(=O)c2ccnc(Cl)c2)c2ccc(Sc4ccc(F)cc4)cc23)c(C)c1 [Compound 20, (2-chloro-4-pyridyl)-[1′-[(E)-3-(2,4-dimethylphenyl)allyl]-5-(4-fluorophenyl)sulfanyl-spiro[indoline-3,4′-piperidine]-1-yl]methanone] | – | ≤ 50
11 | Cc1ccc(/C=C/CN2CCC3(CC2)CN(C(=O)c2cc(C)nc(Cl)c2)c2ccc(Sc4ccc(F)cc4)cc23)c(C)c1 [Compound 21, (2-chloro-6-methyl-4-pyridyl)-[1′-[(E)-3-(2,4-dimethylphenyl)allyl]-5-(4-fluorophenyl)sulfanyl-spiro[indoline-3,4′-piperidine]-1-yl]methanone] | – | ≤ 50
12 | Cc1ccc(/C=C/CN2CCC3(CC2)CN(C(=O)c2ccnc(C)c2)c2ccc(Sc4ccc(F)cc4)cc23)c(C)c1 [Compound 22, [1′-[(E)-3-(2,4-dimethylphenyl)allyl]-5-(4-fluorophenyl)sulfanyl-spiro[indoline-3,4′-piperidine]-1-yl]-(2-methyl-4-pyridyl)methanone] | – | ≤ 50
13 | O=C(c1ccnc(Cl)c1)N1CC2(CCN(C/C=C/c3ccc(Cl)c(Cl)c3)CC2)c2cc(Sc3ccc(F)cc3)ccc21 [Compound 23, (2-chloro-4-pyridyl)-[1′-[(E)-3-(3,4-dichlorophenyl)allyl]-5-(4-fluorophenyl)sulfanyl-spiro[indoline-3,4′-piperidine]-1-yl]methanone] | – | ≤ 50
14 | Cc1cc(C(=O)N2CC3(CCN(C/C=C/c4ccc(Cl)c(Cl)c4)CC3)c3cc(Sc4ccc(F)cc4)ccc32)cc(Cl)n1 [Compound 24, (2-chloro-6-methyl-4-pyridyl)-[1′-[(E)-3-(3,4-dichlorophenyl)allyl]-5-(4-fluorophenyl)sulfanyl-spiro[indoline-3,4′-piperidine]-1-yl]methanone] | – | ≤ 50
15 | Cc1cc(C(=O)N2CC3(CCN(C/C=C/c4ccc(Cl)c(Cl)c4)CC3)c3cc(Sc4ccc(F)cc4)ccc32)ccn1 [Compound 25, [1′-[(E)-3-(3,4-dichlorophenyl)allyl]-5-(4-fluorophenyl)sulfanyl-spiro[indoline-3,4′-piperidine]-1-yl]-(2-methyl-4-pyridyl)methanone] | – | ≤ 50
16 | O=C(c1ccnc(Cl)c1)N1CC2(CCN(C/C=C/c3ccc(Cl)cc3)CC2)c2cc(Sc3ccc(F)cc3)ccc21 [Compound 26, [1′-[(E)-3-(4-chlorophenyl)allyl]-5-(4-fluorophenyl)sulfanyl-spiro[indoline-3,4′-piperidine]-1-yl]-(2-chloro-4-pyridyl)methanone] | – | ≤ 50
17 | Cc1cc(C(=O)N2CC3(CCN(C/C=C/c4ccc(Cl)cc4)CC3)c3cc(Sc4ccc(F)cc4)ccc32)cc(Cl)n1 [Compound 27, (2-chloro-6-methyl-4-pyridyl)-[1′-[(E)-3-(4-chlorophenyl)allyl]-5-(4-fluorophenyl)sulfanyl-spiro[indoline-3,4′-piperidine]-1-yl]methanone] | – | ≤ 50
18 | Cc1cc(C(=O)N2CC3(CCN(C/C=C/c4ccc(Cl)cc4)CC3)c3cc(Sc4ccc(F)cc4)ccc32)ccn1 [Compound 28, [1′-[(E)-3-(4-chlorophenyl)allyl]-5-(4-fluorophenyl)sulfanyl-spiro[indoline-3,4′-piperidine]-1-yl]-(2-methyl-4-pyridyl)methanone] | – | ≤ 50
19 | O=C(c1ccnc(Cl)c1)N1CC2(CCN(C/C=C/c3ccc(Cl)cc3Cl)CC2)c2cc(Sc3ccc(F)cc3)ccc21 [Compound 29, (2-chloro-4-pyridyl)-[1′-[(E)-3-(2,4-dichlorophenyl)allyl]-5-(4-fluorophenyl)sulfanyl-spiro[indoline-3,4′-piperidine]-1-yl]methanone] | – | ≤ 50
20 | Cc1cc(C(=O)N2CC3(CCN(C/C=C/c4ccc(Cl)cc4Cl)CC3)c3cc(Sc4ccc(F)cc4)ccc32)cc(Cl)n1 [Compound 30, (2-chloro-6-methyl-4-pyridyl)-[1′-[(E)-3-(2,4-dichlorophenyl)allyl]-5-(4-fluorophenyl)sulfanyl-spiro[indoline-3,4′-piperidine]-1-yl]methanone] | – | ≤ 50
21 | Cc1cc(C(=O)N2CC3(CCN(C/C=C/c4ccc(Cl)cc4Cl)CC3)c3cc(Sc4ccc(F)cc4)ccc32)ccn1 [Compound 31, [1′-[(E)-3-(2,4-dichlorophenyl)allyl]-5-(4-fluorophenyl)sulfanyl-spiro[indoline-3,4′-piperidine]-1-yl]-(2-methyl-4-pyridyl)methanone] | – | ≤ 50
22 | O=C(c1ccnc(Cl)c1)N1CC2(CCN(C/C=C/c3ccc(F)c(F)c3)CC2)c2cc(Sc3ccc(F)cc3)ccc21 [Compound 32, (2-chloro-4-pyridyl)-[1′-[(E)-3-(3,4-difluorophenyl)allyl]-5-(4-fluorophenyl)sulfanyl-spiro[indoline-3,4′-piperidine]-1-yl]methanone] | – | ≤ 50
23 | Cc1cc(C(=O)N2CC3(CCN(C/C=C/c4ccc(F)c(F)c4)CC3)c3cc(Sc4ccc(F)cc4)ccc32)cc(Cl)n1 [Compound 33, (2-chloro-6-methyl-4-pyridyl)-[1′-[(E)-3-(3,4-difluorophenyl)allyl]-5-(4-fluorophenyl)sulfanyl-spiro[indoline-3,4′-piperidine]-1-yl]methanone] | – | ≤ 50
24 | Cc1cc(C(=O)N2CC3(CCN(C/C=C/c4ccc(F)c(F)c4)CC3)c3cc(Sc4ccc(F)cc4)ccc32)ccn1 [Compound 34, [1′-[(E)-3-(3,4-difluorophenyl)allyl]-5-(4-fluorophenyl)sulfanyl-spiro[indoline-3,4′-piperidine]-1-yl]-(2-methyl-4-pyridyl)methanone] | – | ≤ 50
25 | O=C(c1ccnc(Cl)c1)N1CC2(CCN(C/C=C/c3ccc(F)cc3)CC2)c2cc(Sc3ccc(F)cc3)ccc21 [Compound 35, (2-chloro-4-pyridyl)-[1′-[(E)-3-(4-fluorophenyl)allyl]-5-(4-fluorophenyl)sulfanyl-spiro[indoline-3,4′-piperidine]-1-yl]methanone] | – | ≤ 50
26 | Cc1cc(C(=O)N2CC3(CCN(C/C=C/c4ccc(F)cc4)CC3)c3cc(Sc4ccc(F)cc4)ccc32)cc(Cl)n1 [Compound 36, (2-chloro-6-methyl-4-pyridyl)-[1′-[(E)-3-(4-fluorophenyl)allyl]-5-(4-fluorophenyl)sulfanyl-spiro[indoline-3,4′-piperidine]-1-yl]methanone] | – | ≤ 50
